Laboratory results reported in the supplement of paper PMC11061612.

Key:
Experiment in all cases: combination Emax (second highest fraction inhibited in the dose matrix, 72 h); higher = more inhibition; extreme values may be limits of the assay
[1] = tested on: Ca-Ski (Cervical Carcinoma)
Procedure, shortened: (§1)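 Cell lines grown in DMEM/F12 or RPMI with 10% FBS were plated in 1536-well plates and held 24 hours at 37°C, 5% CO2 before 72 hours of exposure to two-drug dose matrices, with DMSO typically at 0.2%. CellTiter-Glo 2.0 luminescence gave viability, which was converted to inhibition. Vehicle wells were set to 0 and blank wells to 1. Combination Emax is the second-highest inhibition in the matrix, and Bliss excess is the observed combination effect minus the expected EA + EB − EA·EB, where EA and EB are the single-agent effects.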

[2] = tested on: OE33 (Esophageal Adenocarcinoma)
Procedure, shortened: as §1

[3] = tested on: ML-2 (Acute Myeloid Leukemia)
Procedure, shortened: as §1

[4] = tested on: SW982 (Other Solid Carcinomas)
Procedure, shortened: as §1

[5] = tested on: EFO-21 (Ovarian Carcinoma)
Procedure, shortened: as §1

[6] = tested on: COLO-668 (Small Cell Lung Carcinoma)
Procedure, shortened: as §1

SK-N-AS (Neuroblastoma) = tested on: SK-N-AS (Neuroblastoma)
Procedure, shortened: as §1

[7] = tested on: DU-145 (Prostate Carcinoma)
Procedure, shortened: as §1

[8] = tested on: KMRC-1 (Kidney Carcinoma)
Procedure, shortened: as §1

[9] = tested on: Mo-T (Other Blood Carcinomas)
Procedure, shortened: as §1

[10] = tested on: NCI-H522 (Lung Adenocarcinoma)
Procedure, shortened: as §1

[11] = tested on: SKN (Other Solid Carcinomas)
Procedure, shortened: as §1

[12] = tested on: NCI-H1355 (Lung Adenocarcinoma)
Procedure, shortened: as §1

Structure (SMILES) | combination Emax [1] | combination Emax [2] | combination Emax [3] | combination Emax [4] | combination Emax [5] | combination Emax [6] | combination Emax (SK-N-AS (Neuroblastoma)) | combination Emax [7] | combination Emax [8] | combination Emax [9] | combination Emax [10] | combination Emax [11] | combination Emax [12]
C=CCn1c(=O)c2cnc(Nc3ccc(N4CCN(C)CC4)cc3)nc2n1-c1cccc(C(C)(C)O)n1 [AZD1775] + CCc1c2c(nc3ccc(O)cc13)-c1cc3c(c(=O)n1C2)COC(=O)[C@]3(O)CC [SN-38] (first compound max 1 µM, partner max 0.3 µM) | 1 | 0.734 | 1 | 0.866 | 0.466 | 0.956 | 0.844 | 0.598 | 0.534 | 0.817 | 0.7 | 0.756 | 0.659
C=CCn1c(=O)c2cnc(Nc3ccc(N4CCN(C)CC4)cc3)nc2n1-c1cccc(C(C)(C)O)n1 [AZD1775] + Nc1ccn([C@@H]2O[C@H](CO)[C@@H](O)C2(F)F)c(=O)n1 [Gemcitabine] (first compound max 1 µM, partner max 0.3 µM) | 0.828 | 0.616 | 1 | 0.888 | 0.482 | 0.738 | 0.704 | 0.542 | 0.717 | 0.766 | 0.608 | 0.633 | 0.614
CN(CCO)CC[C@H](CSc1ccccc1)Nc1ccc(S(=O)(=O)NC(=O)c2ccc(N3CCC([C@@H](O)c4ccccc4-c4ccc(Cl)cc4)CC3)cc2)cc1S(=O)(=O)C(F)(F)F [AZD4320] + CS(=O)(=O)CCNCc1ccc(-c2ccc3ncnc(Nc4ccc(OCc5cccc(F)c5)c(Cl)c4)c3c2)o1 [Lapatinib] (first compound max 1 µM, 7x7, partner max 10 µM) | 1 | 0.806 | 1 | 0.968 | 0.491 | 0.975 | 0.197 | 0.174 | 0.944 | 0.959 | 0.237 | 0.759 | 0.264
Cc1c2c(nn1C)CSCc1cc(n(C)n1)CSc1cc(c3ccccc3c1)OCCCc1c(C(=O)O)n(C)c3c-2c(Cl)ccc13 [AZD5991] + CC(=O)O[C@H]1C(=O)[C@@]2(C)[C@H]([C@H](OC(=O)c3ccccc3)[C@]3(O)C[C@H](OC(=O)[C@H](O)[C@@H](NC(=O)c4ccccc4)c4ccccc4)C(C)=C1C3(C)C)[C@]1(OC(C)=O)CO[C@@H]1C[C@@H]2O [Paclitaxel] (first compound max 1 µM, 7x7, partner max 3 µM) | 0.919 | 0.524 | 1 | 0.953 | 0.368 | 0.46 | 0.83 | 0.686 | 0.508 | 0.658 | 0.969 | 0.694 | 0.76
Cc1c2c(nn1C)CSCc1cc(n(C)n1)CSc1cc(c3ccccc3c1)OCCCc1c(C(=O)O)n(C)c3c-2c(Cl)ccc13 [AZD5991] + CS(=O)(=O)CCNCc1ccc(-c2ccc3ncnc(Nc4ccc(OCc5cccc(F)c5)c(Cl)c4)c3c2)o1 [Lapatinib] (first compound max 1 µM, 7x7, partner max 10 µM) | 0.735 | 0.529 | 1 | 0.621 | 0.277 | 0.285 | 0.395 | 0.198 | 0.54 | 0.371 | 0.626 | 0.223 | 0.326
Cc1c2c(nn1C)CSCc1cc(n(C)n1)CSc1cc(c3ccccc3c1)OCCCc1c(C(=O)O)n(C)c3c-2c(Cl)ccc13 [AZD5991] + Nc1ccn([C@@H]2O[C@H](CO)[C@@H](O)C2(F)F)c(=O)n1 [Gemcitabine] (first compound max 1 µM, 7x7, partner max 0.3 µM) | 0.757 | 0.543 | 1 | 0.844 | 0.379 | 0.829 | 0.717 | 0.441 | 0.737 | 0.685 | 0.784 | 0.582 | 0.455
C[C@@H]1COCCN1c1cc(C2([S@](C)(=N)=O)CC2)nc(-c2ccnc3[nH]ccc23)n1 [AZD6738] + C1CC(C1)(C(=O)[O-])C(=O)[O-].N.N.[Pt+2] [Carboplatin] (first compound max 10 µM, 7x7, partner max 10 µM) | 0.649 | 0.771 | 0.916 | 0.665 | 0.263 | 0.567 | 0.69 | 0.351 | 0.521 | 0.366 | 0.194 | 0.427 | 0.581
C[C@@H]1COCCN1c1cc(C2([S@](C)(=N)=O)CC2)nc(-c2ccnc3[nH]ccc23)n1 [AZD6738] + Nc1ccn([C@@H]2O[C@H](CO)[C@@H](O)C2(F)F)c(=O)n1 [Gemcitabine] (first compound max 10 µM, 7x7, partner max 0.3 µM) | 0.883 | 0.752 | 1 | 0.949 | 0.625 | 0.854 | 0.801 | 0.583 | 0.801 | 0.812 | 0.912 | 0.71 | 0.722
C[C@@H](Nc1cc(F)cc(F)c1)c1cc(C(=O)N(C)C)cc2c(=O)cc(N3CCOCC3)oc12 [AZD8186] + C1CN(CCC1(C(=O)N[C@@H](CCO)C2=CC=C(C=C2)Cl)N)C3=NC=NC4=C3C=CN4 [AZD5363] (first compound max 10 µM, 7x7, partner max 10 µM) | 0.463 | 0.332 | 0.558 | 0.512 | 0.235 | 0.327 | 0.135 | 0.189 | 0.618 | 0.347 | 0.0756 | 0.557 | 0.395
C[C@@H](Nc1cc(F)cc(F)c1)c1cc(C(=O)N(C)C)cc2c(=O)cc(N3CCOCC3)oc12 [AZD8186] + CC(=O)c1c(C)c2cnc(Nc3ccc(N4CCNCC4)cn3)nc2n(C2CCCC2)c1=O [Palbociclib] (first compound max 10 µM, 7x7, partner max 10 µM) | 0.484 | 0.477 | 0.686 | 0.639 | 0.325 | 0.378 | 0.281 | 0.417 | 0.566 | 0.383 | 0.147 | 0.665 | 0.425
C[C@@H](Oc1cc(-c2cnn(C3CCNCC3)c2)cnc1N)c1c(Cl)ccc(F)c1Cl [Crizotinib] + CC1=C(C(=CC=C1)Cl)NC(=O)C2=CN=C(S2)NC3=CC(=NC(=N3)C)N4CCN(CC4)CCO [Dasatinib] (first compound max 10 µM, 7x7, partner max 2 µM) | 0.942 | 0.853 | 0.969 | 1 | 0.701 | 0.415 | 0.491 | 0.462 | 0.815 | 0.383 | 0.339 | 0.866 | 0.289
C[C@@H](Oc1cc(-c2cnn(C3CCNCC3)c2)cnc1N)c1c(Cl)ccc(F)c1Cl [Crizotinib] + Cn1cnc2c(F)c(Nc3ccc(Br)cc3Cl)c(C(=O)NOCCO)cc21 [Selumetinib] (first compound max 10 µM, 7x7, partner max 10 µM) | 0.551 | 0.539 | 1 | 0.973 | 0.224 | 0.852 | 0.585 | 0.12 | 0.323 | 0.466 | 0.117 | 0.368 | 0.388
CS(=O)(=O)CCNCc1ccc(-c2ccc3ncnc(Nc4ccc(OCc5cccc(F)c5)c(Cl)c4)c3c2)o1 [Lapatinib] + Cn1cnc2c(F)c(Nc3ccc(Br)cc3Cl)c(C(=O)NOCCO)cc21 [Selumetinib] (first compound max 10 µM, 7x7, partner max 10 µM) | 0.671 | 0.743 | 0.715 | 0.66 | 0.331 | 0.493 | 0.441 | 0.171 | 0.696 | 0.477 | 0.257 | 0.341 | 0.472
CS(=O)(=O)CCNCc1ccc(-c2ccc3ncnc(Nc4ccc(OCc5cccc(F)c5)c(Cl)c4)c3c2)o1 [Lapatinib] + NC1(c2ccc(-c3nc4ccn5c(=O)[nH]nc5c4cc3-c3ccccc3)cc2)CCC1 [MK-2206] (first compound max 10 µM, 7x7, partner max 10 µM) | 0.758 | 0.849 | 0.785 | 0.894 | 0.321 | 0.508 | 0.16 | 0.297 | 0.792 | 0.948 | 0.322 | 0.658 | 0.286
O=C(c1cc(Cc2n[nH]c(=O)c3ccccc23)ccc1F)N1CCN(C(=O)C2CC2)CC1 [Olaparib] + CC1(C)CCC(CN2CCN(c3ccc(C(=O)NS(=O)(=O)c4ccc(NCC5CCOCC5)c([N+](=O)[O-])c4)c(Oc4cnc5[nH]ccc5c4)c3)CC2)=C(c2ccc(Cl)cc2)C1 [Venetoclax] (first compound max 10 µM, 7x7, partner max 1 µM) | 0.162 | 0.139 | 0.961 | 0.432 | 0.0952 | 0.255 | 0.106 | 0.126 | 0.182 | 0.186 | 0.0786 | 0.104 | 0.172
O=C(c1cc(Cc2n[nH]c(=O)c3ccccc23)ccc1F)N1CCN(C(=O)C2CC2)CC1 [Olaparib] + CN(CC[C@H](CSC1=CC=CC=C1)NC2=C(C=C(C=C2)S(=O)(=O)NC(=O)C3=CC=C(C=C3)N4CCC(CC4)[C@H](C5=CC=CC=C5C6=CC=C(C=C6)Cl)O)S(=O)(=O)C(F)(F)F)CCO [AZD4320] (first compound max 10 µM, 7x7, partner max 1 µM) | 0.26 | 0.105 | 0.979 | 0.709 | 0.172 | 0.823 | 0.112 | 0.0992 | 0.219 | 0.844 | 0.0607 | 0.174 | 0.198
O=C(c1cc(Cc2n[nH]c(=O)c3ccccc23)ccc1F)N1CCN(C(=O)C2CC2)CC1 [Olaparib] + COc1nnc2ccc(N3CCC(c4ccc(OCCN5CCN(C)C(=O)[C@H]5C)cc4)CC3)nn12 [AZD5153] (first compound max 10 µM, 7x7, partner max 1 µM) | 0.481 | 0.224 | 0.917 | 0.787 | 0.353 | 0.323 | 0.326 | 0.219 | 0.277 | 0.59 | 0.309 | 0.553 | 0.335
